Patent US20260159604A1, “USES OF NON-SMALL CELL LUNG CANCER TARGET ARID1A AND INHIBITOR THEREOF IN PREPARATION OF DRUG FOR TREATING LUNG CANCER” (THE FIRST AFFILIATED HOSPITAL OF BENGBU MEDICAL COLLEGE, priority 2021, published 2026)

How the values were obtained:
[1] = system: ARID1A-deficient lung cancers; experiment: Intervention in glycolysis in AAV9-CMV-Cre induced KP and KPAfl/fl mouse lung cancer models; format: in vivo; settings: KPAfl/fl mice, AAV9-CMV-Cre induction
Source text: In Example 4 of the present invention, the biological mechanism of ARID1A deletion promoting lung cancer progression by increasing glycolysis levels was described. In this example, one or more strategies were used to intervene in glycolysis levels, and whether the method(s) could inhibit the progression of ARID1A-deficient lung cancers was observed. In one embodiment, the present invention used a clinical drug 2-DG to inhibit glucose metabolism levels, including glycolysis levels of tumor cells. In another embodiment, the present invention used lentivirus-mediated CRISPR/Cas9 to interfere with the expression of Pgam1 gene (pSECC-sgPgaml group), wherein the nucleotide sequences of the sgRNA were as shown in SEQ ID NO: 4 and SEQ ID NO: 5. In another embodiment, the present invention used lentivirus-mediated CRISPR/Cas9 to interfere with the expression of Pkm gene (pSECC-sgPkm group), wherein the nucleotide sequences of the […] were as shown in SEQ ID NO: 6 and SEQ ID NO: 7.
Firstly, 4-week-old KP and KPAfl/fl mouse systems were established. Secondly, AAV9-CMV-Cre virus induction was performed on mice. At the same time, lentivirus-mediated Cas9 and sgRNA were administered respectively to target a key gene Pgam1 or Pkm in glycolysis for intervention, with 2-DG drug treatment as another experimental group. […]

[2] = system: KP and KPAfl/fl tumor-derived organoids; experiment: Drug sensitivity of BET inhibitors on tumor-derived organoids; format: cell-based, mouse; settings: for number of organoids with increasing drug concentration: different drug concentrations
Description: Firstly, lung tumor cells of KP and KPAfl/fl mice were taken for in vitro organoid culture and expansion, and drug sensitivity experiments of five widely used BET inhibitors were conducted on tumor-derived organoids (as shown in FIG. 7 panel A).

[3] = system: tumors with ARID1A knockout; experiment: KP and KPAfl/fl tumor organoids xenotransplanted subcutaneously into C57 mice; format: in vivo, mouse; settings: subcutaneous organoid xenotransplant in C57 mice, volumes measured every 3 days
Description: During the experiment, tumor volumes were measured every 3 days.

[4] = system: ARID1A-deficient lung cancer cells; experiment: Sensitivity to BETi small molecules in transgenic model mice (KP and KPAfl/fl groups); format: in vivo, mouse
Description: Finally, the sensitivity of BETi small molecules to ARID1A-deficient cells was tested on transgenic model mice (KP and KPAfl/fl groups) (FIG. 7 panel D).

[5] = system: ARID1A-mutant ovarian cancers; settings: reported studies; cited from earlier work

O=CC[C@@H](O)[C@H](O)[C@H](O)CO [2-DG, 2-deoxy-D-glucose]
inhibition of tumor progression caused by the ARID1A deletion [1]: could to some extent inhibit tumor progression

COc1cc2c(cc1-c1c(C)noc1C)ncc1[nH]c(=O)n([C@H](C)c3ccccn3)c12 [Bet151]
number of organoids with increasing drug concentration ([2]; 7th day): the number of organoids decreased with the increase of drug concentration

CC(=O)N1c2ccc(-c3ccc(C(=O)O)cc3)cc2[C@H](Nc2ccc(Cl)cc2)C[C@@H]1C [Bet726]
number of organoids with increasing drug concentration ([2]; 7th day): the number of organoids decreased with the increase of drug concentration

Cc1sc2c(c1C)C(c1ccc(Cl)cc1)=N[C@@H](CC(=O)OC(C)(C)C)c1nnc(C)n1-2 [JQ1]
survival ability of ARID1A-deficient versus ARID1A wild-type tumor organoids [2]: greater damage to the survival ability of ARID1A-deficient tumor organoids than ARID1A wild-type organoids
number of organoids with increasing drug concentration ([2]; 7th day): the number of organoids decreased with the increase of drug concentration
formation of tumor-derived organoids, KPAfl/fl versus KP ([2]; concentrations of 10 μm and 50 μm, 7th day): selectively impaired the formation of KPAfl/fl tumor-derived organoids
sensitivity of ARID1A-deficient lung adenocarcinoma cells to BETi compounds ([2]; summary statement, compared with other BETi): more sensitive
sensitivity by comparing tumor volumes and weights [3]: more sensitive
slowing of progression of ARID1A-deficient lung cancers (FIG. 7 legend) ([4]; FIG. 7 summary): more prominent inhibitory effect
sensitivity by comparing the number and area of tumors ([4]; transgenic KP and KPAfl/fl mice): sensitive
inhibitory effects on ARID1A-mutant ovarian cancers [5]: inhibitory effects on ARID1A-mutant ovarian cancers

Cc1sc2c(c1C)C(c1ccc(Cl)cc1)=N[C@@H](CC(=O)Nc1ccc(O)cc1)c1nnc(C)n1-2 [OTX015, Birabresib]
number of organoids with increasing drug concentration ([2]; 7th day): the number of organoids decreased with the increase of drug concentration
